Laboratory results published in ChEMBL document CHEMBL5030511, “Targeting KRAS Mutant Cancers via Combination Treatment: Discovery of a 5-Fluoro-4-(3H)-quinazolinone Aryl Urea pan-RAF Kinase Inhibitor” (J Med Chem, 2021).
pIC50, pKi: −log10 of the molar value. Values after ≈ are worked out from the molar mass of the structure shown. Values belong to the compound of their own block, whether it stands above or below them. Active and inactive are the calls of the source. The rule behind the calls is not given here.

What was measured:
[1] = Volume of distribution at steady state in mouse at 1 mg/kg, iv; format: ADME, organism-based; conditions: in vivo, read-out: Vdss
[2] = tested on: Mus musculus; assay: Induction of CRAF phosphorylation in human HCT-116 cells xenografted NCR nude mouse at 10 mg/kg, po bid for 4 days in presence of Cobimetinib and measured after 2 to 8 hrs; format: functional, organism-based; conditions: time 4.0 day
[3] = tested on: A549; assay: Antiproliferative activity against human A549 cells harboring KRAS mutant assessed as reduction in cell viability incubated for 24 hrs by Click-iT EdU cell proliferation imaging assay; format: functional, cell-based; conditions: A549, 24 h
[4] = tested on: A-375; assay: Antiproliferative activity against human A-375 cells harboring BRAF mutant assessed as reduction in cell viability incubated for 24 hrs by Click-iT EdU cell proliferation imaging assay; format: functional, cell-based; conditions: A-375, 24 h
[5] = tested on: A-375; assay: Additive antiproliferative activity against human A-375 cells harboring BRAF mutant assessed as inhibition of cell growth in presence of Cobimetinib by EdU staining based assay; format: functional
[6] = Toxicity in NCR nude mouse xenografted with human HCT-116 cells harboring KRAS mutant assessed as body weight loss at 10 mg/kg, po bid for 21 days in presence of 5 mg/kg Cobimetinib; format: organism-based; conditions: in vivo, 504 h, time 21 day
[7] = target: RAF proto-oncogene serine/threonine-protein kinase (Homo sapiens, UniProt P04049, Y340D/Y341D)
[8] = Oral bioavailability in mouse using amorphous spray-dried dispersion at 30 mg/kg; format: ADME, organism-based; conditions: in vivo
[9] = tested on: HCT-116; assay: Synergistic antiproliferative activity against human HCT-116 cells harboring KRAS mutant assessed as inhibition of cell growth at 0.003 to 0.93 uM in presence of Cobimetinib by EdU staining based assay; format: functional; conditions: dose 0.003-0.93 µM
[10] = tested on: A549; assay: Synergistic antiproliferative activity against human A549 cells harboring KRAS mutant assessed as reduction in cell viability incubated for 24 hrs in presence of 100 nM cobimetinib by Click-iT EdU cell proliferation imaging assay; format: functional, cell-based; conditions: A549, 24 h
[11] = tested on: Mus musculus; assay: Induction of stabilization of CRAF phosphorylation in human HCT-116 cells xenografted NCR nude mouse assessed as decrease in pERK level at 10 mg/kg, po bid for 4 days in presence of Cobimetinib and measured after 8 hrs; format: functional, organism-based; conditions: time 4.0 day
[12] = tested on: Mus musculus; assay: Induction of stabilization of CRAF phosphorylation in human HCT-116 cells xenografted NCR nude mouse assessed as decrease in pRSK level at 10 mg/kg, po bid for 4 days in presence of Cobimetinib and measured after 8 hrs; format: functional, organism-based; conditions: time 4.0 day
[13] = tested on: Mus musculus; assay: Induction of stabilization of CRAF phosphorylation in human HCT-116 cells xenografted NCR nude mouse assessed as decrease in pERK level at 10 mg/kg, po bid for 4 days and measured after 2 to 8 hrs; format: functional, organism-based; conditions: time 4.0 day
[14] = Oral bioavailability in mouse using PEG 400 at 5 mg/kg; format: ADME, organism-based; conditions: in vivo
[15] = tested on: HCT-116; assay: Antitumour activity against human HCT-116 cells harboring KRAS mutant xenografted in NCR nude mouse assessed as tumor growth inhibition at 10 mg/kg, po bid for 21 days in presence of 5 mg/kg Cobimetinib; format: functional; conditions: HCT-116, po, 504 h, time 21 day, read-out: TGI
[16] = Clearance in mouse at 1 mg/kg, iv; format: ADME, organism-based; conditions: in vivo
[17] = target: Serine/threonine-protein kinase B-raf (Homo sapiens, UniProt P15056)
Description: Inhibition of BRAF (unknown origin) (416 to 766) inactive MAP2K1 as substrate preincubated for 30 mins measured after 90 mins by DELFIA assay

[18] = Half life in mouse at 1 mg/kg, iv; format: ADME, organism-based; conditions: in vivo
[19] = tested on: Mus musculus; assay: Induction of stabilization of CRAF phosphorylation in human HCT-116 cells xenografted NCR nude mouse assessed as decrease in pMEK level at 10 mg/kg, po bid for 4 days and measured after 2 to 8 hrs; format: functional, organism-based; conditions: time 4.0 day
[20] = tested on: HCT-116; assay: Antitumour activity against human HCT-116 cells harboring KRAS mutant xenografted in NCR nude mouse assessed as tumor growth inhibition at 10 mg/kg, po bid for 21 days; format: functional, organism-based; conditions: time 21.0 day
[21] = Kinetic solubility of the compound in pH 7.4 PBS buffer; format: physicochemical; conditions: read-out: Kinetic_solubility
[22] = Apparent permeability from apical to basolateral side in dog MDCK cells; format: ADME, cell-based, Canis lupus familiaris
[23] = Toxicity in NCR nude mouse xenografted with human HCT-116 cells harboring KRAS mutant assessed as body weight loss at 10 mg/kg, po bid for 21 days; format: organism-based; conditions: in vivo, 504 h, time 21 day
[24] = Lipophilicity, log D of the compound at pH 7.4; format: physicochemical; conditions: buffer
[25] = tested on: A549; assay: Synergistic antiproliferative activity against human A549 cells harboring KRAS mutant assessed as inhibition of cell growth in presence of Cobimetinib by EdU staining based assay; format: functional; conditions: dose 0.02-5 µM
[26] = tested on: Mus musculus; assay: Induction of stabilization of CRAF phosphorylation in human HCT-116 cells xenografted NCR nude mouse assessed as decrease in pRSK level at 10 mg/kg, po bid for 4 days and measured after 2 to 8 hrs; format: functional, organism-based; conditions: time 4.0 day
[27] = Oral bioavailability in mouse using amorphous spray-dried dispersion at 25 mg/kg; format: ADME, organism-based; conditions: in vivo
[28] = Oral bioavailability in mouse using methylcellulose-tween at 5 mg/kg; format: ADME, organism-based; conditions: in vivo
[29] = tested on: Mus musculus; assay: Inhibition of pERK in human HCT-116 cells xenografted NCR nude mouse at 5 mg/kg, po qd for 4 days and measured after 2 to 8 hrs; format: functional, organism-based; conditions: time 4.0 day
[30] = tested on: HCT-116; assay: Antitumour activity against human HCT-116 cells harboring KRAS mutant xenografted in NCR nude mouse assessed as tumor growth inhibition at 5 mg/kg, po qd for 21 days; format: functional, organism-based; conditions: time 21.0 day

RAF proto-oncogene serine/threonine-protein kinase, sequence (P04049 whole entry Y340D/Y341D): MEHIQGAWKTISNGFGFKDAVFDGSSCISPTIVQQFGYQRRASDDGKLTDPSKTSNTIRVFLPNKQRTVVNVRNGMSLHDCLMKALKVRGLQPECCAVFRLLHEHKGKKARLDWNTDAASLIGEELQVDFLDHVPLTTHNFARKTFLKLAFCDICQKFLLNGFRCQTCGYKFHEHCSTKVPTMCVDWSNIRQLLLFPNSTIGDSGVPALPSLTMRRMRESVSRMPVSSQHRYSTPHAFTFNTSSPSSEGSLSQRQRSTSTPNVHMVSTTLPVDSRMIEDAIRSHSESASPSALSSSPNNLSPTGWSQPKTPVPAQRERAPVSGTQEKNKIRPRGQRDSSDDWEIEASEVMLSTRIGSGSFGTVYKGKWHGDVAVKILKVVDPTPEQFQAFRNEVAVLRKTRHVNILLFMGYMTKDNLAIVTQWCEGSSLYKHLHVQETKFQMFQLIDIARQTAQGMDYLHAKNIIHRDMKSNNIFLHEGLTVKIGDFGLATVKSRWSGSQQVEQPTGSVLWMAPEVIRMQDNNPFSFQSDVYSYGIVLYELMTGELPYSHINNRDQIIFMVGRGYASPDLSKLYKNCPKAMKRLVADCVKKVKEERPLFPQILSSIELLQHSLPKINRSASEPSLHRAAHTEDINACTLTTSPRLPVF
Serine/threonine-protein kinase B-raf, sequence (P15056 whole entry): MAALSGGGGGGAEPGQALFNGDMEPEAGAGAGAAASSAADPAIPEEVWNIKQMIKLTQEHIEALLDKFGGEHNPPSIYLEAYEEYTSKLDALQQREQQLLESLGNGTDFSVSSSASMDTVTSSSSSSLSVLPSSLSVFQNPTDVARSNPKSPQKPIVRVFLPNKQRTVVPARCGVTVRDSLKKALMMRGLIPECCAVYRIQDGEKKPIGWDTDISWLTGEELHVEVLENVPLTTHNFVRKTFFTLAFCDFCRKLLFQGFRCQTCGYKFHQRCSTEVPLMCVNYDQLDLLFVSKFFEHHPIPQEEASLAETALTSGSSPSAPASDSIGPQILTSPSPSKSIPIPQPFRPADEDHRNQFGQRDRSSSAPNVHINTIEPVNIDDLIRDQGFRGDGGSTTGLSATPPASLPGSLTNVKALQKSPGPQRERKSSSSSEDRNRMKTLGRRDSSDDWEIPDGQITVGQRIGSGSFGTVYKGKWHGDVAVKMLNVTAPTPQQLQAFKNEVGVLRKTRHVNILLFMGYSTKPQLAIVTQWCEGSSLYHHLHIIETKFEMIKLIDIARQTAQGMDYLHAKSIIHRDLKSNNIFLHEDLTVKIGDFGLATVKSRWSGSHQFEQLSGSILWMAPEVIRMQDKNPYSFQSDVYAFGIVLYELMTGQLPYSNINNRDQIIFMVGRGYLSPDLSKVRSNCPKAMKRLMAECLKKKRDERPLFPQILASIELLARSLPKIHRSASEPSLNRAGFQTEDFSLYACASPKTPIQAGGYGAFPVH

Vd [1]: 1.4 L/kg
pIC50 [3]: 5.54
pIC50 [4]: 6.95
pKi [7]: 10.21
bioavailability [8]: 60%
pIC50 [10]: 6.77
bioavailability [14]: 26%
clearance [16]: 27 mL/min/kg
pKi [17]: > 10.10
half-life [18]: 48 min
solubility kinetic [21]: 3 µM (≈ 1.33 µg/mL)
Papp A→B [22]: 13 ×10⁻⁶ cm/s
logD [24]: 4.47
SMILES: Cc1cc(F)c(NC(=O)NCCC(C)(C)C)cc1Nc1ccc2ncn(C)c(=O)c2c1F
Activity [2]: Active
Activity [5]: Active
Activity [6]: Non-Toxic
Activity [9]: Active
Activity [11]: Active
Activity [12]: Active
Activity [13]: Active
inhibition in vivo at 10 mg/kg [15]: 110%
Activity [19]: Active
Activity [20]: Active
Activity [23]: 10%
Activity [25]: Dose-Dependent Effect
Activity [26]: Active

Vd [1]: 0.94 L/kg
pIC50 [3]: 5.57
pIC50 [4]: 6.39
pKi [7]: > 10.30
pIC50 [10]: 6.60
bioavailability [27]: 2%
clearance [16]: 50 mL/min/kg
pKi [17]: > 10.10
half-life [18]: 30 min
solubility kinetic [21]: < 1 µM
Papp A→B [22]: 3.6 ×10⁻⁶ cm/s
bioavailability [28]: 0%
logD [24]: 4.47
SMILES: Cc1cc(F)c(NC(=O)NCCC(C)(C)C)cc1Nc1ccc2ncn(C)c(=O)c2c1

pIC50 [3]: 6.28
pIC50 [4]: 8.10
pKi [7]: > 10.30
pIC50 [10]: 7.01
pKi [17]: > 10.10
SMILES: Cc1cc(F)c(NC(=O)NCCC(C)(C)C)cc1NC(=O)c1cccc2c(N)ncnc12

pIC50 [3]: 5.62
pIC50 [4]: 7.03
pKi [7]: 10.22
pIC50 [10]: 6.68
pKi [17]: > 10.10
SMILES: CNc1cc(-c2cccnc2Nc2cc(NC(=O)NCCC(C)(C)C)c(F)cc2C)ncn1

Second part, the compound before the results:

SMILES: Cc1cc(F)c(NC(=O)NCCC(C)(C)C)cc1NC(=O)N(C)c1cc(N)ncn1
pIC50 [3]: 5.85
pIC50 [4]: 7.07
pKi [7]: > 10.30
pIC50 [10]: 6.98
pKi [17]: > 10.10

SMILES: O=C(c1ccc(F)c(F)c1Nc1ccc(I)cc1F)N1CC(O)([C@@H]2CCCCN2)C1
inhibition [29]: Active
Activity [30]: Active

SMILES: COc1n[nH]c2ncc(NC(=O)c3cc(NC(=O)NCCC(C)(C)C)c(F)cc3C)cc12
pIC50 [3]: 6.01
pIC50 [4]: 7.32
pKi [7]: > 10.30
pIC50 [10]: 6.80
